Data reported in patent US8679478B2, “Methods of lysosomal storage disease therapy” (Duke University, priority 2010, dated 2014).

Tests used:
Format in all cases: in vivo, mouse
GAA-KO mice [1] = test: Glycogen content in tissues, gene therapy plus clenbuterol; settings: vector plus clenbuterol v. vector alone
Procedure: FIG. 5A-5B depicts enhanced efficacy from liver-targeted gene therapy plus clenbuterol treatment. The GAA-KO mice were injected with AAV-LSPhGAA (2×10^10 vector particles/mouse) or uninjected (5 per group). Vector-treated mice were treated with AAV-LSPhGAA and clenbuterol or with AAV-LSPhGAA alone. Untreated (mock) GAA-KO mice were used as controls. Mice were euthanized for tissue analysis 4 weeks after vector injection. […] Statistically significant differences indicated (*=p<0.05; **=p<0.01).
(§1) For in vivo analysis of AAV vectors, stocks were administered intravenously (via the retroorbital sinus) in 3 month-old and 15 month-old GAA-KO mice, and to 3 month-old tolerant GAA-KO and DKO mice. Clenbuterol (30 μg/ml) was administered to groups of 3 month-old vector-injected and mock-injected male GAA-KO mice in drinking water for 28 days. At the indicated time points post-injection, tissue samples were obtained and processed as described below. All animal procedures were done in accordance with Duke University Institutional Animal Care and Use Committee-approved guidelines. GAA activity and glycogen content were analyzed essentially as described (Sun et al., Mol. Ther., 2005, 11:889-898; Sun et al., Mol. Ther., 2005, 11: 57-65). Rotarod testing was performed essentially as described (Sun, B. D. et al. 2005). Western blotting of hGAA was performed essentially as described (Amalfitano et al., Proc. Natl. Acad. Sci. USA, 1999, 96: 8861-8866) using the hGAA monoclonal antibody (courtesy of Genzyme Corp., Framingham, Mass.) and the CI-MPR antibody (catalog number GTX28093; Gene Tex, Irvine, Calif.).
Based upon the implication that CI-MPR expression was crucial to both uptake and intracellular processing of GAA in Pompe disease, levels of CI-MPR in GAA-KO mice were manipulated. A related but distinct strategy for addressing the apparently limiting role of CI-MPR expression in achieving efficacy with ERT in Pompe disease involved enhancement of rhGAA glycosylation (Raben et al., Mol. Genet. Metab., 2003, 80: 159-169; Raben et al., Transgenic Res., 2003, 12: 171-178; McVie-Wylie et al., Mol. Genet. Metab., 2008, 94: 448-455). […] The vector-transduced liver depot was enhanced by the addition of a drug, clenbuterol, which increases the expression of CI-MPR in muscle (Matsumoto et al., Arch. Oral Biol., 2006 51:603-611). The liver was transduced by administering AAV-LSPhGAA (2×10^10 vector particles) to groups of 3 month-old male GAA-KO mice, and clenbuterol (30 μg/ml) was administered to groups of 3 month-old vector-injected and mock-injected male GAA-KO mice in drinking water.

GAA-KO mice [2] = test: Glycogen content in muscles, ERT plus clenbuterol or albuterol; settings: for glycogen content for quadriceps: p<0.001; for Glycogen content: ERT plus clenbuterol v. ERT alone
Procedure: (§2) FIG. 8A-8C depicts increased GAA uptake and increased glycogen clearance in GAA-KO mice following clenbuterol treatment and ERT. […] GAA-KO mice were administered four weekly doses of rhGAA (20 mg/kg), and treated with clenbuterol (n=6) or untreated (n=5). […] Mean+/−standard deviation are shown. Statistically significant differences indicated (*=p<0.05; **=p<0.01).
GAA-KO mice were treated with weekly rhGAA (20 mg/kg): with medium clenbuterol, […] (n=6), with low clenbuterol, 1.3 mg/ml (n=6), with albuterol 30 mg/ml (n=4), or without drug treatment (n=3). Drugs were administered in the drinking water. Mean+/−s.d. shown. Statistically significant differences indicated (*=p<0.05; **=p<0.01).
as §1
(§3) The efficacy from gene therapy was increased by β2 agonist stimulation from clenbuterol treatment, and this benefit might be expected to affect ERT in Pompe disease, as well. Therefore, groups of 3 month-old GAA-KO mice were treated with four weekly doses of rhGAA (20 mg/kg), with or without concurrent clenbuterol treatment.

GAA-KO mice [3] = test: Rotarod testing, ERT (rhGAA) plus clenbuterol; settings: rhGAA 20 mg/kg weekly x4 plus clenbuterol v. ERT alone; male mice; p=0.04 at 1 week
Procedure: GAA-KO mice were administered four weekly doses of rhGAA (20 mg/kg), and treated with clenbuterol (n=5) or ERT alone (n=5). […] Mean+/−standard deviation are shown. Statistically significant differences indicated (*=p<0.05; **=p<0.01).
as §1, with “Calif.). […]” for “Calif.).”

GAA-KO mice [4] = test: GAA activity in tissues, ERT plus clenbuterol; settings: ERT plus clenbuterol v. ERT alone
Procedure: as §2, §1, §3

CC(C)(C)NCC(O)c1cc(Cl)c(N)c(Cl)c1 (stereo not drawn) [clenbuterol]
absence of increased glycogen clearance: glycogen clearance (GAA-KO mice [2]; gastrocnemius, ERT plus clenbuterol)
significantly increased: GAA activity (GAA-KO mice [4]; gastrocnemius, p=0.04) | GAA activity (GAA-KO mice [4]; liver, p<0.0001) | GAA activity (GAA-KO mice [4]; spleen, p=0.002)
significantly reduced: glycogen content for quadriceps (GAA-KO mice [2]; ERT plus clenbuterol 1.3 μg/ml (Low) in drinking water) | glycogen content for quadriceps (GAA-KO mice [2]; ERT plus clenbuterol 6 μg/ml (Medium) in drinking water) | Glycogen content (GAA-KO mice [2]; diaphragm, p=0.0002) | Glycogen content (GAA-KO mice [2]; quadriceps, p=0.00002) | Glycogen content (GAA-KO mice [2]; tibialis anterior, p=0.002)
increased Rotarod latency: Rotarod latency (GAA-KO mice [3])
reduced: Glycogen content (GAA-KO mice [1]; EDL, p=0.002) | Glycogen content (GAA-KO mice [1]; cerebellum, p=0.03) | Glycogen content (GAA-KO mice [1]; cerebrum, p<5×10^−5) | Glycogen content (GAA-KO mice [1]; diaphragm, p=0.04) | Glycogen content (GAA-KO mice [1]; soleus, p=0.0006)
